The source made the active and inactive calls. No cut-off for these calls is given here. Peptide text beside a SMILES is read from it. * marks the point of attachment. βGlc = OC[C@H]1O[C@@H](*)[C@H](O)[C@@H](O)[C@@H]1O
Experiments:
Type in all cases: functional
[1] = target: T1, Substance-K receptor (Mesocricetus auratus) (UniProt P51144); assay: Compound was tested for its antagonistic activity against tachykinin NK2 receptor in hamster trachea (HT).
T1 sequence (whole entry): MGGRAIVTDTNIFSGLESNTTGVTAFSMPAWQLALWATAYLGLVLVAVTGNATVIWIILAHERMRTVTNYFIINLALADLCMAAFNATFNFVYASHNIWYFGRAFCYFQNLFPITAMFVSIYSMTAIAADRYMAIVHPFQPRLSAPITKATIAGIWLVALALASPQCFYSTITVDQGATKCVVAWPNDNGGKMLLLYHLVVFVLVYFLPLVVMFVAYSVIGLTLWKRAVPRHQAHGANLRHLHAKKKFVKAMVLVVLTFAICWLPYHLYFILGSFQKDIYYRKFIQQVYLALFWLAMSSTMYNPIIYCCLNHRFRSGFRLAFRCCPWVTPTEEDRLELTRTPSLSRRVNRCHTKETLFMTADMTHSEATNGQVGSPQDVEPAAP

[2] = target: T2, Substance-K receptor (Oryctolagus cuniculus) (UniProt P79218); assay: Compound was tested for its antagonistic activity against tachykinin NK2 receptor in isolated rabbit pulmonary artery (RPA).
T2 sequence (whole entry): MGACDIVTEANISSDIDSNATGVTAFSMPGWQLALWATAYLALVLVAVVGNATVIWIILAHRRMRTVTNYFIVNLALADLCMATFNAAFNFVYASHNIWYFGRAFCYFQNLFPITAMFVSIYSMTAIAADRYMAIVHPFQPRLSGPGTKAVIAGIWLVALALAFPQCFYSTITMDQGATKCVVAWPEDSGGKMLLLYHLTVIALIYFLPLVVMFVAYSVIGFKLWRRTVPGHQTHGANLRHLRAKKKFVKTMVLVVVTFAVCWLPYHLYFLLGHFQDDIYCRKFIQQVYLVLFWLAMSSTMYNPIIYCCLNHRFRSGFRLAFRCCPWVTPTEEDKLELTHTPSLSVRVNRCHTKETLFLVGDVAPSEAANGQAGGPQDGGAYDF

[3] = target: T1, Substance-K receptor (Mesocricetus auratus); assay: Compound was tested for its antagonistic activity against tachykinin NK2 receptor in hamster trachea (HT); inactive up to 10 uM

Row | SMILES | pKB [1] | pKB [2] | pKB [3]
1 | CC(C)[C@H](NC(=O)[C@H](Cc1c[nH]c2ccccc12)NC(=O)[C@H](Cc1ccc(O)cc1)NC(=O)[C@H](CC(=O)O)NC(=O)[C@@H](N)CO[C@@H]1O[C@H](CO)[C@@H](O)[C@H](O)[C@H]1O)C(=O)N[C@@H](Cc1c[nH]c2ccccc12)C(=O)N[C@H](Cc1c[nH]c2ccccc12)C(=O)N[C@@H](CCCCN)C(N)=O | < 5 | 7.3 | –
2 | CC(C)[C@H](NC(=O)[C@H](Cc1c[nH]c2ccccc12)NC(=O)[C@H](Cc1ccc(O[C@@H]2O[C@H](CO)[C@@H](O)[C@H](O)[C@H]2O)cc1)NC(=O)[C@@H](N)CC(=O)O)C(=O)N[C@@H](Cc1c[nH]c2ccccc12)C(=O)N[C@H](Cc1c[nH]c2ccccc12)C(=O)N[C@@H](CCCCN)C(N)=O | – | 6.2 | inactive
3 | CC(C)[C@H](NC(=O)C(Cc1c[nH]c2ccccc12)NC(=O)[C@H](Cc1ccc(O)cc1)NC(=O)[C@H](CC(=O)O)NC(=O)[C@@H](N)CO[C@@H]1O[C@H](CO)[C@@H](O)[C@H](O)[C@H]1O)C(=O)NC(Cc1c[nH]c2ccccc12)C(N)=O (stereo in doubt) | < 6 | < 6 | –
4 | CC(C)[C@H](NC(=O)[C@H](Cc1c[nH]c2ccccc12)NC(=O)[C@H](Cc1ccc(O)cc1)NC(=O)[C@H](CC(=O)O)NC(=O)[C@@H](N)Cc1ccc(O[C@@H]2O[C@H](CO)[C@@H](O)[C@H](O)[C@H]2O)cc1)C(=O)N[C@@H](Cc1c[nH]c2ccccc12)C(=O)N[C@H](Cc1c[nH]c2ccccc12)C(=O)N[C@@H](CCCCN)C(N)=O | < 5 | 7.2 | –

Second part, the compound after the results:

Row | pKB [1] | pKB [2] | pKB [3] | SMILES
5 | 5.6 | 8.1 | – | CC(C)[C@H](NC(=O)[C@H](Cc1c[nH]c2ccccc12)NC(=O)[C@H](Cc1ccc(O)cc1)NC(=O)[C@@H](N)CC(=O)O)C(=O)N[C@H](Cc1c[nH]c2ccccc12)C(=O)N[C@@H](Cc1c[nH]c2ccccc12)C(=O)N[C@@H](CCCCN)C(N)=O
6 | – | < 5 | inactive | CC(C)[C@H](NC(=O)[C@H](Cc1c[nH]c2ccccc12)NC(=O)[C@H](Cc1ccc(O[C@@H]2O[C@H](CO)[C@@H](O)[C@H](O)[C@H]2O)cc1)NC(=O)[C@@H](N)CC(=O)O)C(=O)N[C@@H](Cc1c[nH]c2ccccc12)C(N)=O (H-DY(βGlc)WVW-NH2)
7 | 5.4 | 6.3 | – | CC(C)[C@H](NC(=O)[C@@H](Cc1c[nH]c2ccccc12)NC(=O)[C@H](Cc1ccc(O)cc1)NC(=O)[C@@H](N)CC(=O)O)C(=O)N[C@H](Cc1c[nH]c2ccccc12)C(N)=O

From ChEMBL document CHEMBL1150464, “Glycosyl derivatives of NK2 tachykinin receptor antagonists” (Bioorg Med Chem Lett, 1996)
